# What was measured:
# [1] = target: T1, Recombinant Rho kinase (fused protein composed of bovine Rho kinase catalytic region and glutathione S-transferase) (Bos taurus, UniProt Q28021); experiment: Rho kinase inhibitory activity (phosphorylation of S6 231-239 substrate with γ32P-ATP); assay type: biochemical; settings: concentration inhibiting substrate phosphorylation by 50%
# T1 construct: fused protein composed of bovine Rho kinase catalytic region and glutathione S-transferase; glutathione S-transferase (GST); made in house; host or cells: insect cells infected with baculovirus
# Description: This permits the substrate to be labeled with the radioisotope.
# Thereafter, the substrate was adsorbed to a filter paper. ATP was washed away with a phosphoric acid solution, and the amount of the phosphorylated substrate was then measured with a liquid scintillation counter.
# [2] = tested on: Mouse-derived CCR2 overexpressing human-derived histiocyte lymphoma (U937/CCR2); experiment: Leukocyte migration inhibitory activity (MCP-1 induced migration, CHEMOTAXICELL); assay type: cell-based; settings: U-937, test compound concentration 10 μg/ml, MCP-1 ligand, migration 1 hr
# Description: Mouse-derived CCR2 overexpressing human-derived histiocyte lymphoma (U937/CCR2), was suspended in a 0.1% BSA-containing RPMI 1640 medium, to which a test compound had been added (5×10^6/ml), and the suspension was incubated for 20 min. A chemical solution (500 μl) (0.1% BSA-containing RPMI 1640 medium DMSO 1%), to which an MCP-1 ligand (1 μM) and the test compound had been added, was added to a 24-well plate. CHEMOTAXICELL was put thereon, and 200 μl of the cell suspension was added to the top layer, followed by migration under a 5% CO2 atmosphere at 37° C. for one hr. The number of cells, which had migrated to the lower chamber, was counted with a particle count analyzer (CDA-500, SYSMEX CORPORATION), and the percentage migration inhibition was calculated by the following equation: Migration inhibition (%)=(1−number of migrated cells in the presence of test compound/number of migrated cells in the absence of test compound)×100
# T1 sequence (Q28021 92-354 limits assumed): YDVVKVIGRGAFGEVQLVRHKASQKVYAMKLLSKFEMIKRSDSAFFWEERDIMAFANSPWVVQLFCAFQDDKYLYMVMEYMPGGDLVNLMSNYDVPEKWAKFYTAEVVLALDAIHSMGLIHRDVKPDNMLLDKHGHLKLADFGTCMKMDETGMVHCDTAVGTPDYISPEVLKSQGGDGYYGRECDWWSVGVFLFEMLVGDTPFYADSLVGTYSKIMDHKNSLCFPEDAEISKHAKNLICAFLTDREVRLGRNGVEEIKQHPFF
Structure (SMILES),IC50 [1] [nM],inhibition at 10 µg/mL [2] [%]
"Clc1ccccc1CN1CCC(Nc2cccc3cnccc23)C1 (centres unmarked) [Example 1, N5-[1-(2-Chlorobenzyl)tetrahydro-1H-3-pyrrolyl]-5-isoquinolylamine]",99,86
"Clc1cccc(CN2CCC(Nc3cccc4cnccc34)C2)c1 (centres unmarked) [Example 2, N5-[1-(3-Chlorobenzyl)tetrahydro-1H-3-pyrrolyl]-5-isoquinolylamine]",63,90
"Clc1ccc(CN2CCC(Nc3cccc4cnccc34)C2)cc1 (centres unmarked) [Example 3, N5-[1-(4-Chlorobenzyl)tetrahydro-1H-3-pyrrolyl]-5-isoquinolylamine]",66,101
"Fc1ccc(CN2CCC(Nc3cccc4cnccc34)C2)cc1 (centres unmarked) [Example 4, N5-[1-(4-Fluorobenzyl)tetrahydro-1H-3-pyrrolyl]-5-isoquinolylamine]",93,98
"Fc1cccc(F)c1CN1CCC(Nc2cccc3cnccc23)C1 (centres unmarked) [Example 5, N5-[1-(2,6-Difluorobenzyl)tetrahydro-1H-3-pyrrolyl]-5-isoquinolylamine]",73,93
"Clc1cccc(Cl)c1CN1CCC(Nc2cccc3cnccc23)C1 (centres unmarked) [Example 6, N5-[1-(2,6-Dichlorobenzyl)tetrahydro-1H-3-pyrrolyl]-5-isoquinolylamine]",140,–
"Cc1ccc(CN2CCC(Nc3cccc4cnccc34)C2)cc1 (centres unmarked) [Example 7, N-(5-Isoquinolyl)-N-[1-(4-methylbenzyl)tetrahydro-1H-3-pyrrolyl]amine]",96,103
"CC(C)c1ccc(CN2CCC(Nc3cccc4cnccc34)C2)cc1 (centres unmarked) [Example 8, N5-[1-(4-Isopropylbenzyl)tetrahydro-1H-3-pyrrolyl]-5-isoquinolylamine]",200,–
"O=[N+]([O-])c1ccccc1CN1CCC(Nc2cccc3cnccc23)C1 (centres unmarked) [Example 9, N-(5-Isoquinolyl)-N-[1-(2-nitrobenzyl)tetrahydro-1H-3-pyrrolyl]amine]",570,–
"O=[N+]([O-])c1cccc(CN2CCC(Nc3cccc4cnccc34)C2)c1 (centres unmarked) [Example 10, N-(5-Isoquinolyl)-N-[1-(3-nitrobenzyl)tetrahydro-1H-3-pyrrolyl]amine]",200,–
"O=[N+]([O-])c1ccc(CN2CCC(Nc3cccc4cnccc34)C2)cc1 (centres unmarked) [Example 11, N-(5-Isoquinolyl)-N-[1-(4-nitrobenzyl)tetrahydro-1H-3-pyrrolyl]amine]",660,–
"O=[N+]([O-])c1cc(Cl)ccc1CN1CCC(Nc2cccc3cnccc23)C1 (centres unmarked) [Example 12, N5-[1-(4-Chloro-2-nitrobenzyl)tetrahydro-1H-3-pyrrolyl]-5-isoquinolylamine]",1300,–
"Nc1ccccc1CN1CCC(Nc2cccc3cnccc23)C1 (centres unmarked) [Example 16, N5-[1-(2-Aminobenzyl)tetrahydro-1H-3-pyrrolyl]-5-isoquinolylamine]",210,99
"Nc1ccc(CN2CCC(Nc3cccc4cnccc34)C2)cc1 (centres unmarked) [Example 18, N5-[1-(4-Aminobenzyl)tetrahydro-1H-3-pyrrolyl]-5-isoquinolylamine]",230,94
"Nc1cc(Cl)ccc1CN1CCC(Nc2cccc3cnccc23)C1 (centres unmarked) [Example 19, N5-[1-(2-Amino-4-chlorobenzyl)tetrahydro-1H-3-pyrrolyl]-5-isoquinolylamine]",240,82
"Clc1ccc(CN2CCCC(Nc3cccc4cnccc34)C2)cc1 (centres unmarked) [Example 22, N5-[1-(4-Chlorobenzyl)-3-piperidyl]-5-isoquinolylamine]",–,80
"Fc1cccc(F)c1CN1CCCC(Nc2cccc3cnccc23)C1 (centres unmarked) [Example 24, N5-[1-(2,6-Difluorobenzyl)-3-piperidyl]-5-isoquinolylamine]",230,–
"Clc1cccc(Cl)c1CN1CCCC(Nc2cccc3cnccc23)C1 (centres unmarked) [Example 25, N5-[1-(2,6-Dichlorobenzyl)-3-piperidyl]-5-isoquinolylamine]",1200,–
"O=[N+]([O-])c1ccccc1CN1CCCC(Nc2cccc3cnccc23)C1 (centres unmarked) [Example 28, N-(5-Isoquinolinyl)-N-[1-(2-nitrobenzyl)-3-piperidyl]amine]",580,–
"O=[N+]([O-])c1ccc(CN2CCCC(Nc3cccc4cnccc34)C2)cc1 (centres unmarked) [Example 30, N-(5-Isoquinolinyl)-N-[1-(4-nitrobenzyl)-3-piperidyl]amine]",1800,–
"O=[N+]([O-])c1cc(Cl)ccc1CN1CCCC(Nc2cccc3cnccc23)C1 (centres unmarked) [Example 31, N5-[1-(4-Chloro-2-nitrobenzyl)-3-piperidyl]-5-isoquinolylamine]",2300,–
"Nc1cc(Cl)ccc1CN1CCCC(Nc2cccc3cnccc23)C1 (centres unmarked) [Example 38, N5-[1-(2-Amino-4-chlorobenzyl)-3-piperidyl]-5-isoquinolylamine]",400,–

# Continued, in another order:
IC50 [1] [nM],Structure (SMILES),inhibition at 10 µg/mL [2] [%]
480,"c1ccc(CN2CCC(Nc3cccc4cnccc34)C2)nc1 (centres unmarked) [Example 13, N-(5-Isoquinolyl)-N-[1-(2-pyridylmethyl)tetrahydro-1H-3-pyrrolyl]amine]",–
590,"c1cncc(CN2CCC(Nc3cccc4cnccc34)C2)c1 (centres unmarked) [Example 14, N-(5-Isoquinolyl)-N-[1-(3-pyridylmethyl)tetrahydro-1H-3-pyrrolyl]amine]",–
1100,"c1cc(NC2CCN(Cc3ccncc3)C2)c2ccncc2c1 (centres unmarked) [Example 15, N-(5-Isoquinolyl)-N-[1-(4-pyridylmethyl)tetrahydro-1H-3-pyrrolyl]amine]",–
210,"Clc1ccccc1CN1CCCC(Nc2cccc3cnccc23)C1 (centres unmarked) [Example 20, N5-[1-(2-Chlorobenzyl)-3-piperidyl]-5-isoquinolylamine]",69
270,"Clc1cccc(CN2CCCC(Nc3cccc4cnccc34)C2)c1 (centres unmarked) [Example 21, N5-[1-(3-Chlorobenzyl)-3-piperidyl]-5-isoquinolylamine]",97
240,"c1ccc(CN2CCCC(Nc3cccc4cnccc34)C2)cc1 (centres unmarked) [Example 23, N-(1-Benzyl-3-piperidyl)-5-isoquinolylamine]",–
180,"Cc1ccc(CN2CCCC(Nc3cccc4cnccc34)C2)cc1 (centres unmarked) [Example 26, N-(5-Isoquinolinyl)-N-[1-(4-methylbenzyl)-3-piperidyl]amine]",–
1900,"O=[N+]([O-])c1cccc(CN2CCCC(Nc3cccc4cnccc34)C2)c1 (centres unmarked) [Example 29, N-(5-Isoquinolinyl)-N-[1-(3-nitrobenzyl)-3-piperidyl]amine]",–
1300,"c1ccc(CN2CCCC(Nc3cccc4cnccc34)C2)nc1 (centres unmarked) [Example 32, N-(5-Isoquinolinyl)-N-[1-(2-pyridylmethyl)-3-piperidyl]amine]",–
1000,"c1cncc(CN2CCCC(Nc3cccc4cnccc34)C2)c1 (centres unmarked) [Example 33, N-(5-Isoquinolinyl)-N-[1-(3-pyridylmethyl)-3-piperidyl]amine]",–
1500,"c1cc(NC2CCCN(Cc3ccncc3)C2)c2ccncc2c1 (centres unmarked) [Example 34, N-(5-Isoquinolinyl)-N-[1-(4-pyridylmethyl)-3-piperidyl]amine]",–
270,"Nc1ccccc1CN1CCCC(Nc2cccc3cnccc23)C1 (centres unmarked) [Example 35, N5-[1-(2-Aminobenzyl)-3-piperidyl]-5-isoquinolylamine]",–
310,"Nc1cccc(CN2CCCC(Nc3cccc4cnccc34)C2)c1 (centres unmarked) [Example 36, N5-[1-(3-Aminobenzyl)-3-piperidyl]-5-isoquinolylamine]",–
290,"Nc1ccc(CN2CCCC(Nc3cccc4cnccc34)C2)cc1 (centres unmarked) [Example 37, N5-[1-(4-Aminobenzyl)-3-piperidyl]-5-isoquinolylamine]",–
23,"c1c[nH]c(CN2CCCC(Nc3cccc4cnccc34)C2)c1 (centres unmarked) [Example 39, N-(5-Isoquinolinyl)-N-[1-(1H-2-pyrrolylmethyl)-3-piperidyl]amine]",–
670,"c1cc(NC2CCCN(Cc3cc[nH]c3)C2)c2ccncc2c1 (centres unmarked) [Example 40, N-(5-Isoquinolinyl)-N-[1-(1H-3-pyrrolylmethyl)-3-piperidyl]amine]",–
190,"c1csc(CN2CCCC(Nc3cccc4cnccc34)C2)c1 (centres unmarked) [Example 41, N-(5-Isoquinolinyl)-N-[1-(2-thienylmethyl)-3-piperidyl]amine]",–
31,"c1cc(NC2CCCN(Cc3ccsc3)C2)c2ccncc2c1 (centres unmarked) [Example 42, N-(5-Isoquinolinyl)-N-[1-(3-thienylmethyl)-3-piperidyl]amine]",–
200,"c1coc(CN2CCCC(Nc3cccc4cnccc34)C2)c1 (centres unmarked) [Example 43, N-[1-(2-Furylmethyl)-3-piperidyl]-N-(5-isoquinolyl)amine]",–
110,"c1cc(NC2CCCN(Cc3ccoc3)C2)c2ccncc2c1 (centres unmarked) [Example 44, N-[1-(3-Furylmethyl)-3-piperidyl]-N-(5-isoquinolyl)amine]",–
